Patent US5935973A, “Heterocyclcarboxamide derivatives and their use as therapeutic agents” (Knoll Aktiengesellschaft, priority 1995, dated 1999)

How the values were obtained:
5-HT1A receptors = biological target: T1, 5-HT1A receptors (Rattus norvegicus, UniProt P19327); experiment: inhibition of [3H]8-OH-DPAT binding to 5-HT1A receptors in rat hippocampal tissue; settings: at 10^-6 M; rat hippocampus, [3H]8-OH-DPAT; read-out: % displacement of radio ligand, 5-HT1A
T1 construct: Hippocampal tissue from the brains of male Sprague-Dawley rats; from tissue; host or cells: rat hippocampus membranes
T1 sequence (P19327 1-422): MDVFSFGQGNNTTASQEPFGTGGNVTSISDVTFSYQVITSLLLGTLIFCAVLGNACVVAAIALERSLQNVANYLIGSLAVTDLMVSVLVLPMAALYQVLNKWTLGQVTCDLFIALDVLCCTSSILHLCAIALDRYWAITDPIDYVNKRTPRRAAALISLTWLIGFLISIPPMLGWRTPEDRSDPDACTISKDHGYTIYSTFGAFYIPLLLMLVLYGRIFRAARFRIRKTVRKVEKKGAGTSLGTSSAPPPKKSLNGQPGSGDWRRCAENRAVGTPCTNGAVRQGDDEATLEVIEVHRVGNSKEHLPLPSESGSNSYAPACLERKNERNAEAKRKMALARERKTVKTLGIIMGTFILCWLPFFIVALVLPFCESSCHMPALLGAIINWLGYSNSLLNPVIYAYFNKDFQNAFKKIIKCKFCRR
Protocol: Hippocampal tissue from the brains of male Sprague-Dawley rats (Charles River; weight range 150-250 g) was homogenised in ice-cold 50 mM Tris-HCl buffer (pH 7.7 when measured at 25° C., 1:40 w/v) and centrifuged at 30,000 g at 4° C. for 10 minutes. The pellet was rehomogenised in the same buffer, incubated at 37° C. for 10 minutes and centrifuged at 30,000 g at 4° C. for 10 minutes. The final pellet was resuspended in 50 mM Tris-HCl buffer (pH 7.7) containing 4 mM CaCl2, 0.1% L-ascorbic acid and 10 μM pargyline hydrochloride (equivalent to 6.25 mg wet weight of tissue/ml) and used immediately in the binding assay. Aliquots (400 μl; equivalent to 2.5 mg wet weight of tissue/tube) of this suspension were added to tubes containing the ligand (50 μl; 2 nM) and distilled water (50 μl total binding) or 5-HT (50 μl; 10 μM; non-specific binding) or test compound (50 μl; at a single concentration of 10^-6 M or at 10 concentrations ranging from 10^-11 -10^-3 M). The ligand was [^3 H]8-hydroxy-2-(dipropylamino)tetralin ([^3 H]8-OH-DPAT) and the mixture was incubated at 25° C. for 30 minutes before the incubation was terminated by rapid filtration.
(§1) The filters were washed with ice-cold Tris-HCl buffer and dried. The filters were punched out into vials, scintillation fluid added and radioactivity determined by liquid scintillation counting. The percentage displacement of specific binding of the tritiated ligand was calculated for the single concentration (10^-6 M) of test compound. Displacement curves were then produced for those compounds which displaced ≥50% of specific binding of the tritiated ligand at 10^-6 M using a range of concentrations of the compound. The concentration which gave 50% inhibition of specific binding (IC50) was obtained from the curve. The inhibition coefficient Ki was then calculated using the formula [formula] in which [ligand] is the concentration of the tritiated ligand used and KD is the equilibrium dissociation constant for the ligand.

α1-adrenoceptors = experiment: inhibition of [7-methoxy-3H]prazosin binding to α1-adrenoceptors in rat whole cortical tissue; settings: at 10^-6 M; rat whole cortex, [7-methoxy-3H]prazosin; 30 min, 1 µM
Protocol: Whole cortical tissue from the brains of male Charles River CD rats weighing between 150-250 g were homogenised in ice-cold 50 mM Tris-HCl, pH 7.6 (at 25° C.; 1:40 w/v) and centrifuged at 1000 g at 4° C. for 10 minutes. The supernatant was centrifuged at 30,000 g at 4° C. for 10 minutes. The pellet was rehomogenised in 50 mM Tris-HCl, pH 7.6 (1:40 w/v) and centrifuged at 30,000 g at 4° C. for 10 minutes. The final pellet was resuspended in 50 mM Tris-HCl, pH 7.6 (equivalent to 12.5 mg wet weight of tissue/ml) and used immediately in the binding assay. Aliquots (400 μl; equivalent to 5 mg wet weight of tissue/tube) of this suspension were added to tubes containing the ligand (50 μl; 0.1 nM) and distilled water (50 μl; total binding) or phentolamine (50 μl; 5 μM; non-specific binding) or test compound (50 μl; at a single concentration of 10^-6 M or at 10 concentrations ranging from 10^-11 -10^-3 M). The ligand was [7-methoxy-^3 H]prazosin and the mixture was incubated at 30° C. for 30 minutes before the incubation was terminated by rapid filtration.
as §1

D2 dopamine receptors = biological target: T2, D2 dopamine receptors (Rattus norvegicus, UniProt P61169); experiment: inhibition of tritiated (S)-sulpiride binding to D2 dopamine receptors in rat striatal tissue; settings: at 10^-6 M; rat striatum, tritiated (S)-sulpiride; read-out: % displacement of radio ligand, D2
T2 construct: Striatal tissue from the brains of male Charles River CD rats; from tissue; host or cells: rat striatum membranes
T2 sequence (P61169 whole entry): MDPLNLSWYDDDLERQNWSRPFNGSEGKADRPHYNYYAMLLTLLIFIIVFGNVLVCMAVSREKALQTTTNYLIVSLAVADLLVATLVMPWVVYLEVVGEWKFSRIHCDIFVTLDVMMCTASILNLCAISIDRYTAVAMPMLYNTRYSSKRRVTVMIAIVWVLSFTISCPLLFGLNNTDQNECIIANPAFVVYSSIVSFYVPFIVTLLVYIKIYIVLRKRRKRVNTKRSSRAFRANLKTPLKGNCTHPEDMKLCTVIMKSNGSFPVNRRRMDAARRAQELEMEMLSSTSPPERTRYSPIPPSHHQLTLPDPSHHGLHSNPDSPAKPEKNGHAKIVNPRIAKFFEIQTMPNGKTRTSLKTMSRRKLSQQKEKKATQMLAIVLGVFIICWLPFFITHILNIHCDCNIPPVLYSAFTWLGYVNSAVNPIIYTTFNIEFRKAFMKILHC
Protocol: Striatal tissue from the brains of male Charles River CD rats weighing between 140-250 g were homogenised in ice-cold 50 mM Tris-HCl buffer (pH 7.7 when measured at 25° C.) and centrifuged at 40,000 g for 10 minutes. The pellet was resuspended in Tris salts buffer (50 mM Tris-HCl buffer containing 120 mM NaCl, 5 mM KCl, 2 mM CaCl2 and 1 mM MgCl2 with the addition of 6 mM ascorbic acid; pH 7.7 when measured at 25° C.), and again centrifuged at 40,000 g for 10 minutes. The final pellet was stored at -80° C. Before each test the pellet was resuspended in Tris salts buffer (equivalent to 2 mg wet weight of tissue/ml). Aliquots (720 μl; equivalent to 1.44 mg wet weight of tissue/tube) of this suspension were then added to tubes containing the ligand (40 μl; 1 nM) and Tris salts buffer (40 μl; total binding) or spiroperidol (40 μl; 10 nM; non-specific binding) or test compound (40 μl; at a single concentration of 10^-6 M or at 6 concentrations ranging from 10^-11 -10^-4 M). The ligand was tritiated (S)-sulpiride and the mixture was incubated at 4° C. for 40 minutes before the incubation was terminated by rapid filtration.
The filters were washed with ice-cold Tris-HCl buffer and dried. The filters were punched out in to vials, scintillation fluid added and were left for about 20 hours before being counted by scintillation spectrophotometry. The percentage displacement of specific binding of the tritiated ligand was calculated for the single concentration (10^-6 M) of test compound. Displacement curves were then produced over a range of concentrations for those compounds which displaced ≥50% of specific binding of the tritiated ligand at 10^-6 M. The concentration which gave a 50% inhibition of specific binding (IC50) was obtained from the curve. The inhibition coefficient Ki was then calculated using the formula [formula] in [ligand] is the concentration of the tritiated ligand used and KD is the 2 equilibrium dissociation constant for the ligand.

Structure (SMILES) | inhibition at 1 µM (5-HT1A receptors) [%] | % displacement of radio ligand, α1 (α1-adrenoceptors) [%] | inhibition at 1 µM (D2 dopamine receptors) [%]
CSc1ncccc1C(=O)NCC1CCN(C[C@H]2COc3ccc(Br)cc3O2)CC1 [Example 38, (S)-N-{[1-(7-bromo-1,4-benzodioxan-2-ylmethyl)-4-piperidyl]methyl}-2-(methylthio)pyridine-3-carboxamide] | 88 | 51 | 99
O=C(NCC1CCN(C[C@H]2COc3ccc(Br)cc3O2)CC1)c1cncc(Br)c1 [Example 39, (S)-5-bromo-N-{[1-(7-bromo-1,4-benzodioxan-2-ylmethyl)-4-piperidyl]methyl}pyridine-3-carboxamide] | 85 | 43 | 87
O=C(NCC1CCN(C[C@H]2COc3ccc(Cl)cc3O2)CC1)c1ccc(-n2cccc2)nc1 [Example 40, (S)-N-{[1-(7-chloro-1,4-benzodioxan-2-ylmethyl)-4-piperidyl]methyl}-6-(1-pyrrolyl)pyridine-3-carboxamide] | 87 | 60 | 91
CSc1ncccc1C(=O)NCC1CCN(C[C@H]2COc3ccc(Cl)cc3O2)CC1 [Example 41, (S)-N-{[1-(7-chloro-1,4-benzodioxan-2-ylmethyl)-4-piperidyl]methyl}-2-(methylthio)pyridine-3-carboxamide] | 68 | 29 | 70
O=C(NCC1CCN(C[C@H]2COc3ccc(Cl)cc3O2)CC1)c1cncc(Br)c1 [Example 42, (S)-5-bromo-N-{[1-(7-chloro-1,4-benzodioxan-2-ylmethyl)-4-piperidyl]methyl}pyridine-3-carboxamide] | 92 | 62 | 91
O=C(NCC1CCN(C[C@H]2COc3ccc(F)cc3O2)CC1)c1cccnc1 [Example 43, (S)-N-{[1-(7-fluoro-1,4-benzodioxan-2-ylmethyl)-4-piperidyl]methyl}pyridine-3-carboxamide] | 76 | 59 | 68
CSc1ncccc1C(=O)NCC1CCN(C[C@H]2COc3ccc(F)cc3O2)CC1 [Example 44, (S)-N-{[1-(7-fluoro-1,4-benzodioxan-2-ylmethyl)-4-piperidyl]methyl}-2-(methylthio)pyridine-3-carboxamide] | 64 | 38 | 57
O=C(NCC1CCN(C[C@H]2COc3cccc(C(F)(F)F)c3O2)CC1)c1cccnc1 [Example 45, (S)-N-{[1-(8-trifluoromethyl-1,4-benzodioxan-2-ylmethyl)-4-piperidyl]methyl}pyridine-3-carboxamide] | 80 | 94 | 97
Cc1ncccc1C(=O)NCC1CCN(C[C@H]2COc3cccc(C(F)(F)F)c3O2)CC1 [Example 46, (S)-2-methyl-N-{[1-(8-trifluoromethyl-1,4-benzodioxan-2-ylmethyl)-4-piperidyl]methyl}pyridine-3-carboxamide] | 86 | 98 | 104
O=C(NCC1CCN(C[C@H]2COc3cccc(C(F)(F)F)c3O2)CC1)c1ccc(-n2cccc2)nc1 [Example 47, (S)-6-(1-pyrrolyl)-N-{[1-(8-trifluoromethyl-1,4-benzodioxan-2-ylmethyl)-4-piperidyl]methyl}pyridine-3-carboxamide] | 75 | 94 | 100
CSc1ncccc1C(=O)NCC1CCN(C[C@H]2COc3cccc(C(F)(F)F)c3O2)CC1 [Example 48, (S)-2-(methylthio)-N-{[1-(8-trifluoromethyl-1,4-benzodioxan-2-ylmethyl)-4-piperidyl]methyl}pyridine-3-carboxamide] | 80 | 93 | 101
O=C(NCC1CCN(C[C@H]2COc3cccc(C(F)(F)F)c3O2)CC1)c1cncc(Br)c1 [Example 49, (S)-5-bromo-N-{[1-(8-trifluoromethyl-1,4-benzodioxan-2-ylmethyl)-4-piperidyl]methyl}pyridine-3-carboxamide] | 88 | 93 | 99
O=C(NCC1CCN(C[C@H]2COc3cccc(Cl)c3O2)CC1)c1ccc(-n2cccc2)nc1 [Example 50, (S)-N-{[1-(8-chloro-1,4-benzodioxan-2-ylmethyl)-4-piperidyl)methyl}-6-(1-pyrrolyl)pyridine-3-carboxamide] | 97 | 98 | 101
CSc1ncccc1C(=O)NCC1CCN(C[C@H]2COc3cccc(Cl)c3O2)CC1 [Example 51] | 95 | 98 | 101
O=C(NCC1CCN(C[C@H]2COc3cccc(Cl)c3O2)CC1)c1cncc(Br)c1 [Example 52, (S)-5-bromo-N-{[1-(8-chloro-1,4-benzodioxan-2-ylmethyl)-4-piperidyl]methyl}pyridine-3-carboxamide] | 95 | 97 | 101
